From patent publication US20250114363A1, “PHARMACEUTICAL COMPOSITION COMPRISING ALLOPURINOL, FEBUXOSTAT, OR A PHARMACEUTICALLY ACCEPTABLE SALT THEREOF FOR PREVENTING OR TREATING CARDIOVASCULAR DISEASE OF SUBJECT HAVING HIGH SERUM URIC ACID LEVEL” (Indream Healthcare Inc., priority 2022, published 2025)

Tests used:
Assay type in all cases: in vivo, human
[1] = system: patients with gout and a history of major cardiovascular diseases; experiment: Clinical trial analysis: risk of major cardiovascular events by serum uric acid concentration (<6 vs >=6) per patient group; details: for increase in risk of occurrence of major cardiovascular events (hazard ratio): serum uric acid maintained at or above 6 vs below 6
Protocol: (§1) A multicenter, randomized, double-blind non-inferiority trial was performed. The details of the clinical trial design have been published previously. An independent data and safety monitoring committee with access to unblinded data monitored the clinical trial. The statistical analysis for the data and the safety monitoring committee was performed by an independent statistical group (WebbWrites).
(§2) The patients were regarded as having a history of major cardiovascular diseases, if they had myocardial infarction, hospitalization for unstable angina, stroke, hospitalization for transient ischemic attack, peripheral vascular disease, or diabetes mellitus symptoms. All participants provided a prior informed consent form.
The patients were randomly assigned so that they received febuxostat or allopurinol administered once a day in a double-blind manner. The randomization was stratified according to the estimated creatinine clearance at baseline (patient group having an estimated creatinine clearance ≥60 ml per minute vs patient group having an estimated creatinine clearance ≥30 and <60 ml per minute).
The dose of allopurinol was modified according to a kidney function. The patients with the estimated creatinine clearance 60 ml or more per minute i) initially received allopurinol at a dose of 300 mg once a day, and the dose was increased in 100 mg increments monthly until the patient had the serum uric acid concentration of less than 6.0 mg per deciliter or the dosage of allopurinol was 600 mg once a day. The patient having the estimated creatinine clearance of 30 ml or more and less than 60 ml per minute initially received 200 mg of allopurinol, and then the dose was increased in 100 mg increments until the patient either had the serum uric acid concentration of less than 6.0 mg per deciliter or was receiving the allopurinol dose of 400 mg once daily.
The dose of febuxostat was not modified according to the kidney function. The patients who were randomly assigned to receive febuxostat initially received 40 mg once a daily, and continued to receive the same dosage if the serum uric acid concentration was less than 6.0 mg per deciliter after 2 weeks of the treatment. If the serum uric acid concentration was higher than 6.0 mg per deciliter at 2nd week visit, the dose of febuxostat was increased to 80 mg once daily for the remainder of the trial.

[2] = system: patients with gout and a history of major cardiovascular diseases; experiment: Clinical trial: proportion of patients reaching serum uric acid concentration targets; details: febuxostat group vs allopurinol group
Protocol: A multicenter, randomized, double-blind non-inferiority trial was performed. The details of the clinical trial design have been published previously. An independent data and safety monitoring committee with access to unblinded data monitored the clinical trial. The statistical analysis for the data and the safety monitoring committee was performed by an independent statistical group (WebbWrites). […] The patients were regarded as having a history of major cardiovascular diseases, if they had myocardial infarction, hospitalization for unstable angina, stroke, hospitalization for transient ischemic attack, peripheral vascular disease, or diabetes mellitus symptoms. All participants provided a prior informed consent form. The dose of allopurinol was modified according to a kidney function. […] The dose of febuxostat was not modified according to the kidney function. The patients who were randomly assigned to receive febuxostat initially received 40 mg once a daily, and continued to receive the same dosage if the serum uric acid concentration was less than 6.0 mg per deciliter after 2 weeks of the treatment. […] During the period, the administration of a double-blind and double-dummy trial medications was guided by an interactive voice-response system which was a procedure to prevent unblinding for the patients whose dose was not adjusted. After completing dose adjustment, the urate level was concealed from the investigators, and the treatment was managed throughout the trial using the interactive voice-response system. […] The patients with reduced kidney function or, the patients aged 65 years or older at randomization were visited at 9 and 15 months for monitoring the serum chemical profile. If the patient agreed to be monitored, but would not return for study visit, telephone contact was made, but such method was not preferred or recommended.

[3] = system: patients with gout and a history of major cardiovascular diseases; experiment: Clinical trial: rate of gout flare; details: overall
Protocol: as §1, §2
All patients received prophylaxis for the first 6 months of the randomly assigned treatment.

Structure (SMILES) | effect on cardiovascular disease when serum uric acid concentration is maintained below 6 ([1]; febuxostat: aged 65 or older, glucose 126 mg/dl or more, LDL-cholesterol 100 mg/dl or less, DBP 80 or lower, or stroke or peripheral vascular disease history) | proportion of patients with maintenance of serum uric acid concentration at less than 6.0 mg per deciliter ([2]; after 2nd week, at most times, difference not large) | proportion of patients with serum uric acid concentration of less than 6.0 mg per deciliter ([2]; at the 2nd week) | proportion of patients with serum uric acid concentration of less than 5.0 mg per deciliter ([2]; entire trial) | rate of gout flare [3] [per patient-year] | effect on cardiovascular disease when serum uric acid concentration is maintained below 6 ([1]; allopurinol: aged 65 years or older or BMI 30 kg/m^2 or less) | increase in risk of occurrence of major cardiovascular events (hazard ratio) ([1]; patient group aged 65 years or older) | increase in risk of occurrence of major cardiovascular events (hazard ratio) ([1]; patient group with BMI of 30 kg/m^2 or less)
Cc1nc(-c2ccc(OCC(C)C)c(C#N)c2)sc1C(=O)O [febuxostat] | prevented or treated | higher proportion | higher | larger proportion | 0.68 | – | – | –
O=c1ncnc2[nH][nH]cc1-2 [allopurinol] | – | – | – | – | 0.63 | effectively prevented or treated | about 1.68 times | about 1.78 times
